Source: the supplement of paper PMC5908809

Columns and labels:
[1] = tested on: normal NK cells expanded with K562-aAPC; experiment: percent inhibition of viability; higher = more inhibition; conditions: 72 h, IL-2 2.5 ng/mL
Description: (§1)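 Drug sensitivity and resistance testing on K562-aAPC-expanded normal NK cells: 5 concentrations (10-fold steps over a 10,000-fold range), 72 h at 37 °C, viability by CellTiter-Glo normalised to DMSO and benzethonium chloride controls; DSS from the fitted curve.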

[2] = tested on: normal NK cells expanded with K562-aAPC; experiment: drug sensitivity score (DSS) (DSS units); higher = more sensitive; extreme values may be limits of the assay; conditions: 72 h; IL-2 2.5 ng/mL
Description: as §1

NK-92 (IL-2 2.5 ng/mL) [3] = experiment: percent inhibition of viability; higher = more inhibition; conditions: 72 h
KAI3 (IL-2 2.5 ng/mL) [4] = experiment: as above; conditions: 72 h
NKL (IL-2 2.5 ng/mL) [5] = experiment: as above; conditions: 72 h
NK-YS (IL-2 2.5 ng/mL) [6] = experiment: as above; conditions: 72 h
SNK-6 (IL-2 2.5 ng/mL) [7] = experiment: as above; conditions: 72 h
YT (IL-2 2.5 ng/mL) [8] = experiment: as above; conditions: 72 h
[9] = tested on: normal primary NK cells, pool 1 (3 donors), resting (IL-2 0 ng/mL); experiment: as above; conditions: 72 h
IMC-1 (IL-2 20 ng/mL) [10] = experiment: as above; conditions: 72 h
DERL-7 (IL-2 2.5 ng/mL) [11] = experiment: as above; conditions: 72 h
[12] = tested on: normal primary NK cells, pool 1 (3 donors) (IL-2 2.5 ng/mL); experiment: as above; conditions: 72 h
[13] = tested on: normal primary NK cells, pool 3 (3 donors) (IL-2 2.5 ng/mL); experiment: as above; conditions: 72 h
KHYG-1 (IL-2 2.5 ng/mL) [14] = experiment: as above; conditions: 72 h
[15] = tested on: normal primary NK cells, pool 2 (3 donors) (IL-2 2.5 ng/mL); experiment: as above; conditions: 72 h
NK-92 (IL-2 2.5 ng/mL) [16] = experiment: drug sensitivity score (DSS) (DSS units); higher = more sensitive; extreme values may be limits of the assay; conditions: 72 h
KAI3 (IL-2 2.5 ng/mL) [17] = experiment: as above; conditions: 72 h
NKL (IL-2 2.5 ng/mL) [18] = experiment: as above; conditions: 72 h
NK-YS (IL-2 2.5 ng/mL) [19] = experiment: as above; conditions: 72 h
SNK-6 (IL-2 2.5 ng/mL) [20] = experiment: as above; conditions: 72 h
YT (IL-2 2.5 ng/mL) [21] = experiment: as above; conditions: 72 h
[22] = tested on: normal primary NK cells, pool 1 (3 donors), resting (IL-2 0 ng/mL); experiment: as above; conditions: 72 h
IMC-1 (IL-2 20 ng/mL) [23] = experiment: as above; conditions: 72 h
DERL-7 (IL-2 2.5 ng/mL) [24] = experiment: as above; conditions: 72 h
[25] = tested on: normal primary NK cells, pool 1 (3 donors) (IL-2 2.5 ng/mL); experiment: as above; conditions: 72 h
[26] = tested on: normal primary NK cells, pool 3 (3 donors) (IL-2 2.5 ng/mL); experiment: as above; conditions: 72 h
KHYG-1 (IL-2 2.5 ng/mL) [27] = experiment: as above; conditions: 72 h
[28] = tested on: normal primary NK cells, pool 2 (3 donors) (IL-2 2.5 ng/mL); experiment: as above; conditions: 72 h

Nc1cc(F)ccc1NC(=O)/C=C/c1cnn(C/C=C/c2ccccc2)c1 [RGFP966] (max concentration tested 10000 nM)
percent inhibition of viability [%]
Conditions	1 nM	10 nM	100 nM	1000 nM	10000 nM
DERL-7 (IL-2 2.5 ng/mL) [11]	-5.83	-2.09	9.7	22.7	77.1
IMC-1 (IL-2 20 ng/mL) [10]	-2.38	0.66	0.87	7.16	19.2
KAI3 (IL-2 2.5 ng/mL) [4]	3.23	7.54	1.59	11.1	70.5
KHYG-1 (IL-2 2.5 ng/mL) [14]	-1.2	0.69	1.5	8.74	43.4
NK-92 (IL-2 2.5 ng/mL) [3]	3.38	1.97	18.1	20.7	79.9
NK-YS (IL-2 2.5 ng/mL) [6]	-1.47	0.43	1.84	5.06	33.6
NKL (IL-2 2.5 ng/mL) [5]	-2.36	10.4	5.66	29.4	82.3
SNK-6 (IL-2 2.5 ng/mL) [7]	6.08	7.31	9.67	21	62.2
YT (IL-2 2.5 ng/mL) [8]	-2.17	-1.29	1.57	1.53	26.1
[1]	4.29	0.23	1.76	9.82	9.19
[9]	0.87	-9.67	-2.19	-2.37	16.1
[12]	-6.12	-12	2.42	-14.4	-7.06
[13]	-1.19	-0.09	10.8	-6.25	4.39
[15]	-11.2	-8.68	8.11	0.44	9.58

Conditions	drug sensitivity score
DERL-7 (IL-2 2.5 ng/mL) [24]	7.16
IMC-1 (IL-2 20 ng/mL) [23]	1.17
KAI3 (IL-2 2.5 ng/mL) [17]	5.75
KHYG-1 (IL-2 2.5 ng/mL) [27]	3.64
NK-92 (IL-2 2.5 ng/mL) [16]	6.98
NK-YS (IL-2 2.5 ng/mL) [19]	2.39
NKL (IL-2 2.5 ng/mL) [18]	8.18
SNK-6 (IL-2 2.5 ng/mL) [20]	5.69
YT (IL-2 2.5 ng/mL) [21]	1.24
[2]	0
[22]	0.22
[25]	0
[26]	0
[28]	0

COc1ccc(-c2ccc3ncc4c(c3c2)n(-c2ccc(N3CCNCC3)c(C(F)(F)F)c2)c(=O)n4C)cn1 [NVP-BGT226] (max concentration tested 1000 nM)
percent inhibition of viability [%]
Conditions	0.1 nM	1 nM	10 nM	100 nM	1000 nM
DERL-7 (IL-2 2.5 ng/mL) [11]	-4.47	7.95	55.7	89	99.7
IMC-1 (IL-2 20 ng/mL) [10]	-2.15	-4.82	-34.6	55.1	97.2
KAI3 (IL-2 2.5 ng/mL) [4]	-0.77	1.29	25.3	57.2	94.7
KHYG-1 (IL-2 2.5 ng/mL) [14]	-2.44	1.07	4.41	76.8	95.9
NK-92 (IL-2 2.5 ng/mL) [3]	-5	-4.68	24.6	74.2	96.2
NK-YS (IL-2 2.5 ng/mL) [6]	-4.92	-1.99	27.6	76.4	95.7
NKL (IL-2 2.5 ng/mL) [5]	-10.6	-18.4	35.3	51.1	93.4
SNK-6 (IL-2 2.5 ng/mL) [7]	8.89	4.85	13.6	64.3	98.2
YT (IL-2 2.5 ng/mL) [8]	-4.65	-0.4	10.2	53.6	74.2
[1]	-0.83	1.88	18.5	46.3	99.4
[9]	5.35	-4.97	14.6	59.2	99
[12]	-4.63	-3.38	9.25	46.3	99
[13]	-7.84	-7.37	7.07	21.4	98.8
[15]	-6.87	0.35	13.2	39	99.7

Conditions	drug sensitivity score
DERL-7 (IL-2 2.5 ng/mL) [24]	24
IMC-1 (IL-2 20 ng/mL) [23]	11.9
KAI3 (IL-2 2.5 ng/mL) [17]	14.1
KHYG-1 (IL-2 2.5 ng/mL) [27]	14.8
NK-92 (IL-2 2.5 ng/mL) [16]	16.7
NK-YS (IL-2 2.5 ng/mL) [19]	17.5
NKL (IL-2 2.5 ng/mL) [18]	13.7
SNK-6 (IL-2 2.5 ng/mL) [20]	14.1
YT (IL-2 2.5 ng/mL) [21]	11.3
[2]	11.6
[22]	13.2
[25]	10.9
[26]	8.86
[28]	9.95

Cn1cc(-c2ccc3nnc(Sc4ccc5ncccc5c4)n3n2)cn1 [SGX-523] (max concentration tested 5000 nM)
percent inhibition of viability [%]
Conditions	0.5 nM	5 nM	50 nM	500 nM	5000 nM
DERL-7 (IL-2 2.5 ng/mL) [11]	3.14	1.32	-1.44	5.03	14.4
IMC-1 (IL-2 20 ng/mL) [10]	-3.56	-0.25	-5.07	-2.74	-1.91
KAI3 (IL-2 2.5 ng/mL) [4]	-4.24	-1.01	0.45	4.1	9.78
KHYG-1 (IL-2 2.5 ng/mL) [14]	-5.57	-5.37	-9.26	-3.51	-7.2
NK-92 (IL-2 2.5 ng/mL) [3]	0.34	-0.3	-4.47	-3.94	1.25
NK-YS (IL-2 2.5 ng/mL) [6]	1.09	-7.03	-6.25	-1.89	-5.01
NKL (IL-2 2.5 ng/mL) [5]	3.77	-3.27	-2.38	-4.59	3.26
SNK-6 (IL-2 2.5 ng/mL) [7]	3.69	0.4	-1.97	8.43	7.74
YT (IL-2 2.5 ng/mL) [8]	-2.71	-0.74	-1.93	1.35	-0.07
[1]	-2.93	-10.2	-5.18	-9.17	-2.25
[9]	-11.2	-4.96	17.1	10.2	32.6
[12]	-8.19	-11.2	-7.5	-10.9	5.13
[13]	3.88	-2.63	1.81	1.46	11.1
[15]	1.04	-8.92	-3.62	-0.26	11.5

Conditions	drug sensitivity score
DERL-7 (IL-2 2.5 ng/mL) [24]	0.58
IMC-1 (IL-2 20 ng/mL) [23]	0.89
KAI3 (IL-2 2.5 ng/mL) [17]	0
KHYG-1 (IL-2 2.5 ng/mL) [27]	0.89
NK-92 (IL-2 2.5 ng/mL) [16]	0
NK-YS (IL-2 2.5 ng/mL) [19]	0
NKL (IL-2 2.5 ng/mL) [18]	0
SNK-6 (IL-2 2.5 ng/mL) [20]	0
YT (IL-2 2.5 ng/mL) [21]	0
[2]	0.89
[22]	2.87
[25]	0
[26]	0.04
[28]	0.02
